System: derived cardiac cell line
Assay: Effect of hypertrophy inducing drugs on derived cardiac cell line (cell size change)
Type: cell-based, human
Conditions: 24 hrs after drug administration; phase-contrast images before and after (FIG. 8)
Experimental: The effect of hypertrophy inducing drugs on derived cardiac cell line was tested. A response to cardiac toxic reagents is important in evaluating the properties of derived cardiac cell line and the future usage of the cells for testing cardiac toxic reagents as well as the mechanistic study on cardiomyopathy. Tumor necrosis factor (TNF)-α was used for the induction and compared the cell size changes at 24 hrs after drug administration.

Tumor necrosis factor (TNF)-α [TNF-α] was tested, and the cell size changes was “increase in the sizes of treated cardiac cells”.

From US9155765B2, “Establishment of patient- or person-specific cardiac myocyte cell lines from human induced pluripotent stem cells (iPSCs)” (Baylor Research Institute, priority 2011, dated 2015)
